Assay results taken from patent publication US5760241A, “Thiol derivatives with metallopeptidase inhibitory activity” (priority 1996, dated 1998).

Experiments:
[1] = target: T1, NEP (membranes from rat kidney cortex) (Rattus norvegicus, UniProt P07861); assay: In vitro NEP-inhibitory activity in rat kidney cortex membranes ([3H][Leu5]-enkephaline substrate); type: biochemical, male Sprague-Dawley rats; conditions: for IC50: 20 minutes at 30° C., [3H][Leu5]-enkephaline 15 nM
T1 construct: from tissue; host or cells: kidney cortex membranes of male Sprague-Dawley rats
T1 sequence (P07861 1-750): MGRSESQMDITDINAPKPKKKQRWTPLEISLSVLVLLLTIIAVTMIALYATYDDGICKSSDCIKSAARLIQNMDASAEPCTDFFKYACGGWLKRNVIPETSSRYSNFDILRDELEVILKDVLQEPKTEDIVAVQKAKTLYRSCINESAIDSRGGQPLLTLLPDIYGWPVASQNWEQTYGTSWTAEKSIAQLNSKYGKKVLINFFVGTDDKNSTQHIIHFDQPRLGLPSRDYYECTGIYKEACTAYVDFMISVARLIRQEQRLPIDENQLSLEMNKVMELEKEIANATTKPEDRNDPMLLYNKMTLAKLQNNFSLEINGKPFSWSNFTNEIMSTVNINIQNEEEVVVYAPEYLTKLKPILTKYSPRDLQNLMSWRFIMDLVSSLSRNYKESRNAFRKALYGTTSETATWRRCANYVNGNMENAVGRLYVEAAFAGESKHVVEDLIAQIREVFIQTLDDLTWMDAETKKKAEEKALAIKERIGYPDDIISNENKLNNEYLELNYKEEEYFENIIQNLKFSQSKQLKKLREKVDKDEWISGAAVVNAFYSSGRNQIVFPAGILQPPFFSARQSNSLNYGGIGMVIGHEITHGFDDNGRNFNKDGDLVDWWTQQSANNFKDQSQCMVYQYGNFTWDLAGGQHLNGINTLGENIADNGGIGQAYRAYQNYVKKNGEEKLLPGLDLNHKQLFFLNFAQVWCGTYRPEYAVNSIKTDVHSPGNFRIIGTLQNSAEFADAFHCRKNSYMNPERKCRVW
Experimental: a) NEP-inhibitory activity
The NEP-inhibitory activity was evaluated in membranes from rat kidney cortex prepared according to the procedure described by T. Maeda et al. in Biochim. Biophys. Acta 1983, 731(1), 115-120.
By working at 0°-4° C., kidneys were removed from male Sprague-Dawley rats weighing approximately 300 g.
Cortex was carefully dissected, finely minced and suspended in a homogenization buffer (10 mM sodium phosphate pH 7.4 containing 1 mM MgCl2, 30 mM NaCl, 0.02% NaN3) 1:15 weight/volume.
The tissue was then homogenized for 30 seconds using an Ultra-Turrax homogenizer.
Approximately 10 ml of homogenate were layered over 10 ml of sucrose (41% weight/volume) and centrifuged at 31200 rpm for 30 minutes at 4° C. in a fixed angle rotor. The membranes were collected from the buffer/sucrose interface, washed twice with 50 mM TRIS/HCl buffer (pH 7.4) and resuspended into the same buffer for storage.
The membranes were stored in small aliquots at -80° C. until use.
The NEP-inhibitory activity was evaluated according to the method described by C. Llorens et al., in Eur. J. Pharmacol., 69, (1981), 113-116, as reported hereinafter.
Aliquots of the membrane suspension prepared as above described (concentration 5 μg/ml of proteins) were preincubated in the presence of an aminopeptidase inhibitory (Bestatin--1 mM) for 10 minutes at 30° C.
[^3 H][Leu^5 ]-enkephaline (15 nM) and buffer TRIS/HCl pH 7.4 (50 mM) were added in order to obtain a final volume of 100 μl.
Incubation (20 minutes at 30° C.) was stopped by adding HCl 0.1M (100 μl).
The formation of the metabolite [^3 H]Tyr-Gly-Gly was quantified by chromatography on polystyrene columns (Porapak Q).

[2] = target: T2, ACE (purified by lung rabbit, EC 3.4.15.1) (Oryctolagus cuniculus, UniProt P12822); assay: In vitro ACE-inhibitory activity (FAPGG substrate, spectrophotometric); type: biochemical; conditions: 37° C.; FAPGG 0.8 mM
T2 construct: purchased SIGMA; host or cells: rabbit lung
T2 sequence (P12822 34-1310): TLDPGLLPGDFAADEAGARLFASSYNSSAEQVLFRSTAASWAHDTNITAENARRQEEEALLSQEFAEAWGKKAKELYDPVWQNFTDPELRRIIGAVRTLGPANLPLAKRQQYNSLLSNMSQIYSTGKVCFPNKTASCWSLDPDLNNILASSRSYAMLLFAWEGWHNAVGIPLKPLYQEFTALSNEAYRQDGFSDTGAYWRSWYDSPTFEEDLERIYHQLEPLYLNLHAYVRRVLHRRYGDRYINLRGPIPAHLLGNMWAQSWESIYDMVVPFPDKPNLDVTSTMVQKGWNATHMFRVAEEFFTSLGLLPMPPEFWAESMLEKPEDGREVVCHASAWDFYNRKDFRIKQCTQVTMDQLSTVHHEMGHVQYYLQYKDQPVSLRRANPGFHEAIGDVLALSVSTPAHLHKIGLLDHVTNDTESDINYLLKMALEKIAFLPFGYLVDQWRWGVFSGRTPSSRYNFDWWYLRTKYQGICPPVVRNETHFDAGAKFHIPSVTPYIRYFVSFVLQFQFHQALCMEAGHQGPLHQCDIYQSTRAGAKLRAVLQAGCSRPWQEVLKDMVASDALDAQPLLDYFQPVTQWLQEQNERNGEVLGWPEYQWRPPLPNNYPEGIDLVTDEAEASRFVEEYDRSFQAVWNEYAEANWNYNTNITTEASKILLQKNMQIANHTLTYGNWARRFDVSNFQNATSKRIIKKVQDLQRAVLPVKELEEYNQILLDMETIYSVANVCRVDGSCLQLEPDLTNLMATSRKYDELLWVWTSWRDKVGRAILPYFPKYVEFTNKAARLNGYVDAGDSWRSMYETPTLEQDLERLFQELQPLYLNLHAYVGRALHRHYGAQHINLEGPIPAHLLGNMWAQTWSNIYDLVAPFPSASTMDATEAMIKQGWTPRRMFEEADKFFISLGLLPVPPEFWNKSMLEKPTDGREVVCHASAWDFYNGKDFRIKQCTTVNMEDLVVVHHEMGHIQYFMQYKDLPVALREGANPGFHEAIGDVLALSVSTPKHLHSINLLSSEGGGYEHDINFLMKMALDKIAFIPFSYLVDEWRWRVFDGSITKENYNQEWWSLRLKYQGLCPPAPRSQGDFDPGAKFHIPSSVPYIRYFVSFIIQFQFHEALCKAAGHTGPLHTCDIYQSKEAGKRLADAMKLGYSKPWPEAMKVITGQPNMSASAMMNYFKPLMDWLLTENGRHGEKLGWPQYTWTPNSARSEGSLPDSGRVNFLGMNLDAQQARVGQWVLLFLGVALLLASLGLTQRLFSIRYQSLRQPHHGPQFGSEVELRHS
Experimental: b) ACE-inhibitory activity
The ACE-inhibitory activity was evaluated according to the method reported in the literature by B. Holmquist et al., in Analytical Biochemistry 95, 540-548 (1979).
[…] of ACE (250 mU/ml purified by lung rabbit, EC 3.4.15.1 SIGMA) were preincubated with 50 μl of the compound of formula I or of the comparison compound in thermostated cuvettes at 37° C.
The reaction was started by adding furylacryloylphenylalanylglycylglycine 0.8 mM (FAPGG-SIGMA).
Contemporaneously, by using a Beckman DU-50 spectrophotometer provided with a program for calculating delta A/minutes and regression coefficients of the enzyme kinetics curves, the absorbance at 340 nm was recorded in continuo for 5 minutes.
The percentage of the enzyme inhibition in the preparations treated with the compounds of formula I or with the comparative compounds with respect to the untreated preparations was expressed as IC50 (nM) value.

[3] = system: ACE/NEP; assay: Ex vivo mixed/dual ACE/NEP-inhibitory activity (lung and kidney of SHR taken together); type: in vivo, spontaneously hypertensive rats (SHR); conditions: intravenous or oral
Experimental: The ex vivo ACE/NEP-inhibitory activity of the compounds of formula I, in particular, was evaluated by considering the enzymatic activity in tissue homogenates (lung and kidney for the ACE- and NEP-inhibitory activity, respectively) from spontaneously hypertensive rats (SHR), treated with the tested compounds by intravenous or oral route.
The inhibitory activity of the compounds of formula I was evaluated in kidneys of spontaneously hypertensive rats (SHR), 5 minutes after i.v. injection (0.6, 0.64 and 21 μmoles/kg) and 30 minutes, 60 minutes and 4 hours after oral administration (30 μmoles/kg) of the tested compounds.
The inhibitory activity of the compounds of formula I was evaluated in lungs of spontaneously hypertensive rats (SHR), 5 minutes after i.v. injection (0.6, 0.64 and 21 μmoles/kg) and 30 minutes, 60 minutes and 4 hours after oral administration (30 μmoles/kg) of the tested compounds.
As an example, the percentages of basal enzymatic activity obtained in the ex vivo tests after the administration of compounds 29 and 41, as representative compounds of formula I, and of the comparison compounds R-1, R-2, R-3 and R-4 are reported in the following table 2.

Row | SMILES | inhibition at 0.1 µM ([1]; read-out: NEP-inhibitory activity % inhibition (10^-7 M), concentration 10^-7 M) [%] | IC50 [2] [nM] | NEP-inhibitory activity % inhibition (10^-7 M) ([1]; concentration 10^-7 M) [%] | IC50 [1] [nM] | ex-vivo mixed/dual ACE/NEP-inhibitory activity, in words [3]
1 | Cc1cc(CC(CS)C(=O)N[C@@H](Cc2ccc(-c3ccccc3)cc2)C(=O)O)on1 (single isomer, unassigned) [compound 53, N-[2-mercaptomethyl-3-(3-methyl-5-isoxazolyl)propionyl]-(1,1'-biphenyl-4-yl)-L-alanine] | 94 | 13 | – | – | –
2 | Cc1cc(CC(CS)C(=O)N[C@@H](Cc2ccc(-c3ccccc3)cc2)C(=O)O)on1 (single isomer, unassigned) [compound 54, N-[2-mercaptomethyl-3-(3-methyl-5-isoxazolyl)propionyl]-(1,1'-biphenyl-4-yl)-L-alanine] | – | 11 | 76 | – | –
3 | O=C(N[C@@H](Cc1ccc(-c2ccccc2)cc1)C(=O)O)[C@H](CS)Cc1ccccc1 [compound 47, N-[(2R)-2-mercaptomethyl-3-phenylpropionyl]-(1,1'-biphenyl-4-yl)-L-alanine] | – | 25.3 | – | 6.1 | –
4 | O=C(N[C@@H](Cc1ccc(-c2ccccc2)cc1)C(=O)O)C(CS)Cc1ccco1 (stereo partly drawn) [compound 52, N-[3-(2-furyl)-2-(mercaptomethyl)propionyl]-(1,1'-biphenyl-4-yl)-L-alanine] | – | 6 | – | 3.7 | –

Now those with a lower IC50 [2], led by results:

Row | inhibition at 0.1 µM ([1]; read-out: NEP-inhibitory activity % inhibition (10^-7 M), concentration 10^-7 M) [%] | IC50 [2] [nM] | NEP-inhibitory activity % inhibition (10^-7 M) ([1]; concentration 10^-7 M) [%] | IC50 [1] [nM] | SMILES | ex-vivo mixed/dual ACE/NEP-inhibitory activity, in words [3]
5 | – | 5 | – | 24 | CC(c1ccccc1)C(CS)C(=O)N[C@@H](C)C(=O)O (stereo partly drawn) [RB 105, N-[2-(mercaptomethyl)-3-phenylbutanoyl]-L-alanine, reference compound] | not confirmed by ex-vivo tests
6 | – | 2.6 | – | 1.8 | O=C(N[C@@H](Cc1ccc(-c2ccccc2)cc1)C(=O)O)[C@@H](CS)Cc1ccccc1 [compound 46, N-[(2S)-2-mercaptomethyl-3-phenylpropionyl]-(1,1'-biphenyl-4-yl)-L-alanine] | –
7 | – | 3.8 | – | 1.2 | CC(C)C(CS)C(=O)N[C@@H](Cc1ccc(-c2ccccc2)cc1)C(=O)O (stereo partly drawn) [compound 49, N-(2-isopropyl-3-mercaptopropionyl)-(1,1'-biphenyl-4-yl)-L-alanine] | –
